Experimental data from the NIST ThermoML archive (doi:10.1021/acs.jced.6b00391).
“And” between values parts separate entries of the source, which are not always exact repeats. Equal values may be shown once.

Columns and labels:
[1] = Liquid, Capillary tube (Ostwald / Ubbelohde) method
[2] = xn = mol fraction of the nth substance listed; conditions: Liquid, Capillary tube (Ostwald / Ubbelohde) method

CCCCCCCCCCCC [dodecane]
[1], 5000 kPa
Conditions | viscosity
303.2 K | 1.334 mPa·s and 1.314 mPa·s
313.2 K | 1.122 mPa·s and 1.116 mPa·s
323 K | 0.97 mPa·s and 0.9626 mPa·s
333.1 K | 0.8519 mPa·s and 0.8434 mPa·s
343.3 K | 0.7442 mPa·s and 0.7445 mPa·s
353.3 K | 0.6736 mPa·s and 0.6661 mPa·s
363.2 K | 0.6075 mPa·s and 0.5969 mPa·s
373.3 K | 0.5467 mPa·s and 0.5397 mPa·s
383.2 K | 0.4902 mPa·s and 0.4913 mPa·s
393.2 K | 0.4472 mPa·s and 0.448 mPa·s
403.2 K | 0.4112 mPa·s and 0.4118 mPa·s
413.2 K | 0.3785 mPa·s and 0.3799 mPa·s
423.2 K | 0.3508 mPa·s and 0.3516 mPa·s
433.2 K | 0.3277 mPa·s and 0.3259 mPa·s
443.4 K | 0.2974 mPa·s and 0.3041 mPa·s
453.1 K | 0.2822 mPa·s and 0.2827 mPa·s
463.2 K | 0.2604 mPa·s and 0.2619 mPa·s
473.2 K | 0.244 mPa·s and 0.244 mPa·s
483.1 K | 0.225 mPa·s and 0.2259 mPa·s
493.2 K | 0.2076 mPa·s and 0.2072 mPa·s
503.2 K | 0.1964 mPa·s and 0.1969 mPa·s
513.1 K | 0.1846 mPa·s and 0.1835 mPa·s
523.2 K | 0.1722 mPa·s and 0.1698 mPa·s
533.1 K | 0.1608 mPa·s and 0.1591 mPa·s
543.2 K | 0.1489 mPa·s and 0.1487 mPa·s
553.2 K | 0.1375 mPa·s and 0.1391 mPa·s
563.2 K | 0.1297 mPa·s and 0.1305 mPa·s
573.2 K | 0.1201 mPa·s and 0.1221 mPa·s
583.3 K | 0.1126 mPa·s and 0.1141 mPa·s
593.2 K | 0.1031 mPa·s and 0.1064 mPa·s
603.2 K | 0.0974 mPa·s and 0.0987 mPa·s
613.2 K | 0.0913 mPa·s and 0.0915 mPa·s
623.1 K | 0.0839 mPa·s and 0.0849 mPa·s
633.2 K | 0.0767 mPa·s and 0.0786 mPa·s
643.1 K | 0.0694 mPa·s and 0.0714 mPa·s
653.2 K | 0.0657 mPa·s and 0.065 mPa·s
663.2 K | 0.0605 mPa·s and 0.0605 mPa·s
673.2 K | 0.0551 mPa·s and 0.0548 mPa·s

CCCCCCCC [octane]
[1], 3100 kPa
Conditions | viscosity
303.2 K | 0.4913 mPa·s and 0.4948 mPa·s
313.3 K | 0.4426 mPa·s and 0.4431 mPa·s
323.2 K | 0.3961 mPa·s and 0.3979 mPa·s
333.2 K | 0.3634 mPa·s and 0.3617 mPa·s
343.2 K | 0.3311 mPa·s and 0.3308 mPa·s
353.1 K | 0.3013 mPa·s and 0.3032 mPa·s
363.2 K | 0.2765 mPa·s and 0.2775 mPa·s
373.3 K | 0.254 mPa·s and 0.258 mPa·s
383 K | 0.234 mPa·s and 0.2379 mPa·s
393.1 K | 0.2205 mPa·s and 0.2202 mPa·s
403.2 K | 0.2019 mPa·s and 0.204 mPa·s
413.2 K | 0.1905 mPa·s and 0.1902 mPa·s
423.2 K | 0.1761 mPa·s and 0.1775 mPa·s
433.1 K | 0.1643 mPa·s and 0.1642 mPa·s
443.2 K | 0.1526 mPa·s and 0.1514 mPa·s
453.1 K | 0.1417 mPa·s and 0.1428 mPa·s
463.2 K | 0.1321 mPa·s and 0.1318 mPa·s
473.1 K | 0.1228 mPa·s and 0.1241 mPa·s
483.1 K | 0.1138 mPa·s and 0.1152 mPa·s
493.1 K | 0.1068 mPa·s and 0.1072 mPa·s
503 K | 0.0993 mPa·s and 0.0983 mPa·s
513.2 K | 0.0901 mPa·s and 0.0904 mPa·s
523.3 K | 0.0825 mPa·s and 0.0826 mPa·s
533.4 K | 0.0753 mPa·s and 0.0751 mPa·s
543.4 K | 0.0678 mPa·s and 0.0678 mPa·s
553.4 K | 0.0607 mPa·s and 0.0609 mPa·s
563.3 K | 0.0532 mPa·s and 0.0534 mPa·s
573.3 K | 0.0444 mPa·s and 0.0446 mPa·s
583.1 K | 0.0325 mPa·s and 0.0323 mPa·s

CCCCCCCC [octane] + CCCCCCC
viscosity, [2]
Conditions | 100 kPa | 5000 kPa
303.5 K, x2 = 0.255 | 0.4422 mPa·s and 0.4417 mPa·s | –
303.5 K, x2 = 0.51 | 0.4149 mPa·s and 0.413 mPa·s | 0.4362 mPa·s and 0.4357 mPa·s
303.9 K, x2 = 0.255 | – | 0.4663 mPa·s and 0.4658 mPa·s
305.7 K, x2 = 0.759 | 0.3798 mPa·s and 0.3784 mPa·s | 0.4032 mPa·s and 0.4029 mPa·s
333.5 K, x2 = 0.51 | 0.3011 mPa·s and 0.3026 mPa·s | –
333.8 K, x2 = 0.255 | 0.3234 mPa·s and 0.3228 mPa·s | –
335.6 K, x2 = 0.759 | 0.2815 mPa·s and 0.2806 mPa·s | –
363.4 K, x2 = 0.255 | 0.2447 mPa·s and 0.2464 mPa·s | –
363.4 K, x2 = 0.51 | 0.2329 mPa·s and 0.2323 mPa·s | –
364.6 K, x2 = 0.759 | 0.2164 mPa·s and 0.2169 mPa·s | –
373.2 K, x2 = 0.255 | – | 0.2415 mPa·s and 0.2402 mPa·s
373.2 K, x2 = 0.759 | – | 0.2181 mPa·s and 0.2175 mPa·s
373.6 K, x2 = 0.51 | – | 0.2277 mPa·s and 0.2275 mPa·s
413.7 K, x2 = 0.51 | – | 0.1702 mPa·s and 0.1698 mPa·s
413.9 K, x2 = 0.255 | – | 0.1792 mPa·s and 0.1801 mPa·s
424.4 K, x2 = 0.759 | – | 0.1497 mPa·s and 0.1493 mPa·s
472.5 K, x2 = 0.759 | – | 0.1071 mPa·s and 0.1075 mPa·s
473.4 K, x2 = 0.51 | – | 0.1124 mPa·s and 0.1125 mPa·s
473.5 K, x2 = 0.255 | – | 0.1186 mPa·s and 0.1184 mPa·s
